Laboratory results reported in US20120214847A1, “2-[1-PHENYL-5-HYDROXY-4a-SUBSTITUTED-HEXAHYDROCYCLOPENTA[F]INDAZOL-5-YL]ETHYL PHENYL DERIVATIVES AS GLUCOCORTICOID RECEPTOR LIGANDS” (Merck Sharp & Dohme Corp., priority 2009, published 2012).

Target: T1, human GR (Homo sapiens, UniProt P04150)
T1 construct: naturally expresses the human GR; endogenous in cells
T1 sequence (P04150 1-777): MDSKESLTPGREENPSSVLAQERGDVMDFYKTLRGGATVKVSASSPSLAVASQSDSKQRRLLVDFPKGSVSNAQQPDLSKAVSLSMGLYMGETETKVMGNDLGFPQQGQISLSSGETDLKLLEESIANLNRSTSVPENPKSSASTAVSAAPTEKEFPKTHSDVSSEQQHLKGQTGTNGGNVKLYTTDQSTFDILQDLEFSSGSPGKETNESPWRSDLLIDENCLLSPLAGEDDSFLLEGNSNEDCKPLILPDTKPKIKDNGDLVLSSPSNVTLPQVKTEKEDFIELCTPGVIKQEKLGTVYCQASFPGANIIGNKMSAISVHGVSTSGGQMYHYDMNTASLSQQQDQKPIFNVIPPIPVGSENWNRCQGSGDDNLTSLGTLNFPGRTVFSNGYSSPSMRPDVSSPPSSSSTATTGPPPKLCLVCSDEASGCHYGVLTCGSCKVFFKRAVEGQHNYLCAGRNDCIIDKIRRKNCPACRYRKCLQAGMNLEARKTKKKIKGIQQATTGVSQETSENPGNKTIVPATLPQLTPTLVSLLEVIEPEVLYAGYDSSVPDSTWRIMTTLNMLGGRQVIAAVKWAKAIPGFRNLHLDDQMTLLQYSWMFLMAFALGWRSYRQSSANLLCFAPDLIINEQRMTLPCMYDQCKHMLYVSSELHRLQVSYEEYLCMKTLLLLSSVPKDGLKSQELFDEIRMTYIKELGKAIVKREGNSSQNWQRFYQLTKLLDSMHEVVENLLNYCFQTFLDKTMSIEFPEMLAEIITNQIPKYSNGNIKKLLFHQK
Assay: Trans-activation modulation of glucocorticoid receptor (GRAMMER), MMTV-LUC reporter in A549 cells
Assay type: cell-based
Conditions: for Emax: A549, A549 cells, read-out: Transactivation A549 Cells Grammer Emax (%); for Emax / Transactivation A549 Cells Grammer Emax (%): Emax relative to the activity obtained with 300 nM dexamethasone; for EC50 / Transactivation A549 Cells Grammer Emax (%): A549 cells; for EC50: IP = inflection point, read-out: Transactivation A549 Cells Grammer IP
From the text: Trans-Activation Modulation of Glucocorticoid Receptor (GRAMMER)
This assay assesses the ability of test compounds to control transcription from the MMTV-LUC reporter gene in lung adenocarcinoma A549 cells or HeLa cells, a human […] cell line that naturally expresses the human GR. The assay measures induction of a modified MMTV LTR/promoter linked to the LUC reporter gene.
The routine transient assay consists of plating 7,000-25,000 cells/well of a white, clear-bottom 96-well plate. Alternatively, 384-well plates can be used at a cell concentration of 10,000/well. The media that the cells are plated in is “exponential growth medium” which consists of phenol red-free RPMI1640 containing 10% FBS, 4 mM L-glutamine, 20 mM HEPES, 10 ug/mL human insulin, and 20 ug/mL gentamicin. Incubator conditions are 37° C. and 5% C02. The transfection is done in batch mode. The cells are trypsinized and counted to the right cell number in the proper amount of fresh media. It is then gently mixed with the FuGene6/DNA 25 mix and plated onto the 96 or 384-well plate, all the wells receive 100 uL or 40 uL, respectively, of medium+lipid/DNA complex then incubated 37° C. overnight. The transfection cocktail consists of serum-free OptiMEM, FuGene6 reagent and DNA. The manufacturer's (Roche Biochemical) protocol for cocktail setup is as follows: The lipid to DNA ratio is approximately 2.5:1 and the incubation time is 20 min at room temperature. Sixteen to 24 h after transfection, the cells are treated with dexamethasone to a final concentration of 10 nM as well as the compound of interest, such that final DMSO (vehicle) concentration is equal to or less than 1%. Each plate also contains samples that are treated with 10 nM dexamethasone alone, which is used as the 100% activity control. The cells are exposed to the compounds for 24 h. After 24 h, the cells are lysed by a Promega cell culture lysis buffer for approximately 30 min and then the luciferase activity in the extracts is assayed in the 96-well format luminometer. In 384 well format, Steady-Glo (Promega) or Steady-Lite (PerkinElmer) can be used by adding an equal volume of reagent to the media present in each well. Activity induced by 10 nM dexamethasone alone is set at 100% activity. Antagonist activity is calculated by determining the decrease in dexamethasone-induced activity in response to compound treatment relative to samples that were treated with dexamethasone alone. Results are expressed as % inhibition of 10 nM dexamethasone activity or as fold of 10 nM dexamethasone activity. This transactivation assay can be performed in an agonist and antagonist mode to identify these different activities.
Activity of test compounds is calculated as the Emax relative to the activity obtained with 300 nM dexamethasone. […] The exemplified tissue selective glucocorticoid receptor modulators of the present invention display agonist activity in this assay of greater than 5% and less than 100%, and maximal transactivation activity less then maximal transrepression activity. The action of compounds is also tested in an antagonist mode (Anti-GRAMMER) in which the cells are treated with medium containing an agonist such as 10 nM DEX and the ability of agents to inhibit the activation by an agonist is measured.

| Structure (SMILES) | Emax | EC50 | Transactivation A549 Cells Grammer Emax (%) |
| --- | --- | --- | --- |
| N#Cc1ccccc1CC[C@]1(O)CCC2=Cc3c(cnn3-c3cccnc3)C[C@@]21C1CC1 [Example 30, 2-{2-[(4aR,5R)-4a-Cyclopropyl-5-hydroxy-1-(pyridin-3-yl)-1,4,4a,5,6,7-hexahydrocyclopenta[f]indazol-5-yl]ethyl}benzonitrile] | 4% | 0.126 µM |  |
| CC[C@]12Cc3cnn(-c4ccc(F)cc4)c3C=C1CC[C@@]2(O)CCc1nccc(OC)c1CC(N)=O [Example 64, 2-(2-{2-[(4aS,5R)-4a-Ethyl-1-(4-fluorophenyl)-5-hydroxy-1,4,4a,5,6,7-hexahydrocyclopenta[f]indazol-5-yl]ethyl}-4-methoxypyridin-3-yl)acetamide] | 37% | 0.142 µM |  |
| CC[C@]12Cc3cnn(-c4ccccc4)c3C=C1CC[C@@]2(O)CC(O)c1cc(C#N)ccn1 (stereo partly drawn) [Example 75, 2-{2-[(4aS,5R)-4a-Ethyl-5-hydroxy-1-phenyl-1,4,4a,5,6,7-hexahydrocyclopenta[f]indazol-5-yl]-1-hydroxyethyl}pyridine-4-carbonitrile] | 10% | 0.106 µM |  |
| CC[C@]12Cc3cnn(-c4ccccc4)c3C=C1CC[C@@]2(O)CC(O)c1ccccn1 (single isomer, unassigned) [Example 67b] |  | 0.174 µM | 10% |
| CC[C@]12Cc3cnn(-c4cccnc4)c3C=C1CC[C@@]2(O)CCc1cccc(F)c1C(N)=O [Example 14, 2-{2-[(4aS,5R)-4a-Ethyl-5-hydroxy-1-(pyridin-3-yl)-1,4,4a,5,6,7-hexahydrocyclopenta[f]indazol-5-yl]ethyl}-6-fluorobenzamide] | 51% | 0.088 µM |  |
| CC[C@]12Cc3cnn(-c4ccc(F)cc4)c3C=C1CC[C@@]2(O)CCc1ncc(F)cc1C(N)=O [Example 53, 2-{2-[(4aS,5R)-4a-Ethyl-1-(4-fluorophenyl)-5-hydroxy-1,4,4a,5,6,7-hexahydrocyclopenta[f]indazol-5-yl]ethyl}-5-fluoropyridine-3-carboxamide] | 49% | 0.077 µM |  |
| CC[C@]12Cc3cnn(-c4ccccc4)c3C=C1CC[C@@]2(O)CC(O)c1ccccn1 (single isomer, unassigned) [Example 67a] | 20% | 0.284 µM |  |
| CC[C@]12Cc3cnn(-c4ccc(F)cc4)c3C=C1CC[C@@]2(O)CC(O)c1ncccc1F (stereo partly drawn) [Example 77, (4aS,5R)-4a-Ethyl-1-(4-fluorophenyl)-5-[2-(3-fluoropyridin-2-yl)-2-hydroxyethyl]-1,4,4a,5,6,7-hexahydrocyclopenta[f]indazol-5-ol] |  | 0.115 µM | 23% |
| CC[C@]12Cc3cnn(-c4ccc(F)cc4)c3C=C1CC[C@@]2(O)CCc1cc(C(F)(F)F)ccn1 [Example 34, (4aS,5R)-4a-Ethyl-1-(4-fluorophenyl)-5-{2-[4-(trifluoromethyl)pyridin-2-yl]ethyl}-1,4,4a,5,6,7-hexahydrocyclopenta[f]indazol-5-ol] | 24% | 0.091 µM |  |
| OC(C[C@]1(O)CCC2=Cc3c(cnn3-c3ccc(F)cc3)C[C@@]21C1CC1)c1ccc(F)cn1 (single isomer, unassigned) [Example 79a] | 10% | 0.186 µM |  |

These reach a lower EC50. Values come first.

| Emax | EC50 | Transactivation A549 Cells Grammer Emax (%) | Structure (SMILES) |
| --- | --- | --- | --- |
| 13% | 0.023 µM |  | N#Cc1ccccc1CC[C@]1(O)CCC2=Cc3c(cnn3-c3ccccc3)C[C@@]21C1CC1 [Example 27, 2-{2-[(4aR,5R)-4a-Cyclopropyl-5-hydroxy-1-phenyl-1,4,4a,5,6,7-hexahydrocyclopenta[f]indazol-5-yl]ethyl}benzonitrile] |
| 5% | 0.042 µM |  | O=S(=O)(c1ccccc1CC[C@]1(O)CCC2=Cc3c(cnn3-c3ccc(F)cc3)C[C@@]21C1CC1)C1CC1 [Example 63, (4aR,5R)-4a-Cyclopropyl-5-{2-[2-(cyclopropylsulfonyl)phenyl]ethyl}-1-(4-fluorophenyl)-1,4,4a,5,6,7-hexahydrocyclopenta[f]indazol-5-ol] |
| 7% | 0.035 µM |  | CCS(=O)(=O)c1ccccc1CC[C@]1(O)CCC2=Cc3c(cnn3-c3ccc(F)cc3)C[C@@]21C1CC1 [Example 59, (4aR,5R)-4a-Cyclopropyl-5-{2-[2-(ethylsulfonyl)phenyl]ethyl}-1-(4-fluorophenyl)-1,4,4a,5,6,7-hexahydrocyclopenta[f]indazol-5-ol] |
| 46% | 0.017 µM |  | NC(=O)CNC(=O)c1ccccc1CC[C@]1(O)CCC2=Cc3c(cnn3-c3ccc(F)cc3)C[C@@]21C1CC1 [Example 47, N-(2-Amino-2-oxoethyl)-2-{2-[(4aR,5R)-4a-cyclopropyl-1-(4-fluorophenyl)-5-hydroxy-1,4,4a,5,6,7-hexahydrocyclopenta[f]indazol-5-yl]ethyl}benzamide] |
| 9% | 0.014 µM |  | NC(=O)Cc1ccccc1CC[C@]1(O)CCC2=Cc3c(cnn3-c3ccc(F)cc3)C[C@@]21C1CC1 [Example 56, 2-(2-{2-[(4aR,5S)-4a-Cyclopropyl-1-(4-fluorophenyl)-5-hydroxy-1,4,4a,5,6,7-hexahydrocyclopenta[f]indazol-5-yl]ethyl}phenyl)acetamide] |
| 44% | 0.03 µM |  | CC[C@]12Cc3cnn(-c4ccc(F)cc4)c3C=C1CC[C@@]2(O)CCc1ncccc1F [Example 17, (4aS,5R)-4a-Ethyl-1-(4-fluorophenyl)-5-[2-(3-fluoropyridin-2-yl)ethyl]-1,4,4a,5,6,7-hexahydrocyclopenta[f]indazol-5-ol] |
| 29% | 0.047 µM |  | CC[C@]12Cc3cnn(-c4cccnc4)c3C=C1CC[C@@]2(O)CCc1ccccc1C#N [Example 5, 2-{2-[(4aS,5R)-4a-Ethyl-5-hydroxy-1-(pyridin-3-yl)-1,4,4a,5,6,7-hexahydrocyclopenta[f]indazol-5-yl]ethyl}benzonitrile] |
| 13% | 0.066 µM |  | OC(C[C@]1(O)CCC2=Cc3c(cnn3-c3ccc(F)cc3)C[C@@]21C1CC1)c1ccccn1 (stereo partly drawn) [Example 78, (4aR,5R)-4a-Cyclopropyl-1-(4-fluorophenyl)-5-[2-hydroxy-2-(pyridin-2-yl)ethyl]-1,4,4a,5,6,7-hexahydrocyclopenta[f]indazol-5-ol] |
| 27% | 0.072 µM |  | CC[C@]12Cc3cnn(-c4ccc(F)cc4)c3C=C1CC[C@@]2(O)CCc1cc(C)ccn1 [Example 33, (4aS,5R)-4a-Ethyl-1-(4-fluorophenyl)-5-[2-(4-methylpyridin-2-yl)ethyl]-1,4,4a,5,6,7-hexahydrocyclopenta[f]indazol-5-ol] |
| 17% | 0.025 µM |  | N#Cc1ccnc(CC[C@]2(O)CCC3=Cc4c(cnn4-c4ccc(F)cc4)C[C@@]32C2CC2)c1 [Example 35, 2-{2-[(4aR,5R)-4a-Cyclopropyl-1-(4-fluorophenyl)-5-hydroxy-1,4,4a,5,6,7-hexahydrocyclopenta[f]indazol-5-yl]ethyl}pyridine-4-carbonitrile] |
